This passage reports inhibition results from patent US20100267822A1, “AURONES AS ESTROGEN RECEPTOR MODULATORS AND THEIR USE IN SEX HORMONE DEPENDENT DISEASES” (priority 2009, published 2010).

Assay [1] has as its target T1, Recombinant human ERalpha protein (Homo sapiens, UniProt P03372).
T1 construct: purchased MDS Pharma Services 226010; host or cells: insect Sf9 cells (printed as '519')
T1 sequence (P03372 1-595): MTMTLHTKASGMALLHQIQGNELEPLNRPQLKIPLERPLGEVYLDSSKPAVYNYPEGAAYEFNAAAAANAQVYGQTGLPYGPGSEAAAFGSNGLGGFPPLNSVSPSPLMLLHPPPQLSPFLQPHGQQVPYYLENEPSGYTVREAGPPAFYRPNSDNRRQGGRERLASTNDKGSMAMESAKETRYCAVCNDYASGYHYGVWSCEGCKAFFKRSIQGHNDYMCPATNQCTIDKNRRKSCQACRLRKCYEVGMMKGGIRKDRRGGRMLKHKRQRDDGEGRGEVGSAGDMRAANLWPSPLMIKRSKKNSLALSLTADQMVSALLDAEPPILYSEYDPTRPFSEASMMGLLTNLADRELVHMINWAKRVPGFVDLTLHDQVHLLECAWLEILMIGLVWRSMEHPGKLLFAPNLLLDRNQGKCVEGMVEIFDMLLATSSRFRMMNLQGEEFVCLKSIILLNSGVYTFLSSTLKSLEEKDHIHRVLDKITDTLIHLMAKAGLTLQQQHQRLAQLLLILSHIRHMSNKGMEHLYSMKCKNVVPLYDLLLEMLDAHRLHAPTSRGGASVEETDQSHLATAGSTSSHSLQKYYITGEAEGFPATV
Nature of the assay: [3H] estradiol binding to recombinant human ERalpha (radioligand displacement, MDS cat No. 226010). The settings on record: test compound 10 μM; 0.5 nM [3H] estradiol; 2 hours at 25° C.; in comparison to the vehicle control (1% DMSO). Here is the method:
Recombinant human ERalpha protein isolated from insect […] cells (MDS Pharma Services: cat No. 226010) was incubated with the test substance (dissolved in 1% DMSO) and 0.5 nM [^3H] estradiol for 2 hours at 25° C. in an incubation buffer (10 mM TrisHCl pH 7.4, 0.1% BSA, 10% Glycerol, 1 mM DTT). At the end of the incubation period, receptor-bound [^3H] estradiol was quantified. Stimulating or inhibiting effects equal or larger than 50% in comparison to vehicle control (1% DMSO) were considered to be significant. The final concentration of the test compound was 10 μM.
(§1) The assays described in Examples 4 and 5 were conducted by MDS (catalogue number 226010 for ERalpha and 226050 for ERbeta, respectively) following procedures established in literature (Obourn et al., Biochemistry 1993, 32: 6229-6236).

Assay [2] addresses T2, Recombinant human ERbeta protein (Homo sapiens, UniProt Q92731).
T2 construct: purchased MDS Pharma Services 226050; host or cells: insect Sf9 cells
Nature of the assay: [3H] estradiol binding to recombinant human ERbeta (radioligand displacement, MDS cat No. 226050). The conditions noted are these: test compound 10 μM; 0.5 nM [3H] estradiol; 2 hours at 25° C.; in comparison to the vehicle control (1% DMSO). Here is the method:
Recombinant human ERbeta protein isolated from insect Sf9 cells (MDS Pharma Services: cat No. 226050) was incubated with the test substance (dissolved in 1% DMSO) and 0.5 nM [^3H] estradiol for 2 hours at 25° C. in an incubation buffer (10 mM TrisHCl pH 7.4, 0.1% BSA, 10% Glycerol, 1 mM DTT). At the end of the incubation period, receptor-bound [^3H] estradiol was quantified. Stimulating or inhibiting effects equal or larger than 50% in comparison to vehicle control (1% DMSO) were considered to be significant. The final concentration of the test compound was 10 μM.
as §1
On the technique in general: In a radioligand displacement assay an active substance lowers the binding of a labelled ligand.

T2 sequence (Q92731 whole entry): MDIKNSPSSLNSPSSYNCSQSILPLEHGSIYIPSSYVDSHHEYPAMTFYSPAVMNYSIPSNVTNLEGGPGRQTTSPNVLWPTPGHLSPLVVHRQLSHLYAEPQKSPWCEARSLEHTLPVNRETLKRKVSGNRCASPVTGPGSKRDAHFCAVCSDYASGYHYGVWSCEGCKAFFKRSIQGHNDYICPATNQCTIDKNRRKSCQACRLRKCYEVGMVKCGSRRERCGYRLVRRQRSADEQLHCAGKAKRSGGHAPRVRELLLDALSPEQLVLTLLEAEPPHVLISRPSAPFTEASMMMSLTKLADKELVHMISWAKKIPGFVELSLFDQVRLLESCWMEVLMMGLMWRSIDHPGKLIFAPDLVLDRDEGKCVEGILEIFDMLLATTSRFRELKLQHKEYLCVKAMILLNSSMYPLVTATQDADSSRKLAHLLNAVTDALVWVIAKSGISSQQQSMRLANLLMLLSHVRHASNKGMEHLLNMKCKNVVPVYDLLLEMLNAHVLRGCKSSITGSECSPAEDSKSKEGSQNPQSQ

The term inhibition denotes the relative decrease from the control value, in per cent. `O=C1/C(=C/c2ccc(O)cc2O)Oc2cc(O)cc(O)c21` [SM29 (3), 2′,4,4′,6-Tetrahydroxyaurone]: the inhibition at 10 µM stood at 2% in assay [1] and 13% in assay [2].
Turning to `O=C1/C(=C/c2ccc(O)cc2)Oc2cc(O)cc(O)c21` [SM30 (3), 4,4′,6-Trihydroxyaurone], the inhibition at 10 µM in assay [1] turned out to be 18%; in assay [2], 91%.
